According to the kinase profiling compilation of Christmann-Franck et al. (2016):

Tests used:
Assay in all cases: KINOMEscan competition binding
MAPK11 (human) = MAPK11 (human) (UniProt Q15759)
RPS6KA5 KD2 (human) = RPS6KA5 KD2 (human) (UniProt O75582)
DYRK1A (human) = DYRK1A (human) (UniProt Q13627)
TSSK1B (human) = TSSK1B (human) (UniProt Q9BXA7)
MAPK13 (human) = MAPK13 (human) (UniProt O15264)
CDK4 CCND3 (human) = CDK4 CCND3 (human) (UniProt P11802+P30281)
DMPK (human) = DMPK (human) (UniProt Q09013)
RPS6KA2 KD1 (human) = RPS6KA2 KD1 (human) (UniProt Q15349)
DYRK2 (human) = DYRK2 (human) (UniProt Q92630)
MARK3 (human) = MARK3 (human) (UniProt P27448)
STK36 (human) = STK36 (human) (UniProt Q9NRP7)
CAMKK1 (human) = CAMKK1 (human) (UniProt Q8N5S9)
SIK1 (human) = SIK1 (human) (UniProt P57059)
EPHB6 (human) = EPHB6 (human) (UniProt O15197)
LYN (human) = LYN (human) (UniProt P07948)
CDK9 (human) = CDK9 (human) (UniProt P50750)
CLK3 (human) = CLK3 (human) (UniProt P49761)
SNRK (human) = SNRK (human) (UniProt Q9NRH2)
PIK3C2B (human) = PIK3C2B (human) (UniProt O00750)
CASK (human) = CASK (human) (UniProt O14936)
CSNK2A1 (human) = CSNK2A1 (human) (UniProt P68400)
PRKACA (human) = PRKACA (human) (UniProt P17612)
NUAK1 (human) = NUAK1 (human) (UniProt O60285)
ULK1 (human) = ULK1 (human) (UniProt O75385)
CaMK1 (human) = CaMK1 (human) (UniProt Q14012)
PRKG1 (human) = PRKG1 (human) (UniProt Q13976)
RPS6KA3 KD1 (human) = RPS6KA3 KD1 (human) (UniProt P51812)
PAK4 (human) = PAK4 (human) (UniProt O96013)
EPHB1 (human) = EPHB1 (human) (UniProt P54762)
PLK3 (human) = PLK3 (human) (UniProt Q9H4B4)
ALK (human) = ALK (human) (UniProt Q9UM73)
STK24 (human) = STK24 (human) (UniProt Q9Y6E0)
CDK14 (human) = CDK14 (human) (UniProt O94921)
MAPK14 (human) = MAPK14 (human) (UniProt Q16539)
AKT1 (human) = AKT1 (human) (UniProt P31749)
CSNK1A1L (human) = CSNK1A1L (human) (UniProt Q8N752)
NIM1 (human) = NIM1 (human) (UniProt Q8IY84)
[1] = test system: MET (human), P08581 [Y1235D]
MAP3K7 (human) = MAP3K7 (human) (UniProt O43318)
CHEK2 (human) = CHEK2 (human) (UniProt O96017)
MAPK10 (human) = MAPK10 (human) (UniProt P53779)
Sequence of MAPK10 (human) (P53779 whole entry, looked up): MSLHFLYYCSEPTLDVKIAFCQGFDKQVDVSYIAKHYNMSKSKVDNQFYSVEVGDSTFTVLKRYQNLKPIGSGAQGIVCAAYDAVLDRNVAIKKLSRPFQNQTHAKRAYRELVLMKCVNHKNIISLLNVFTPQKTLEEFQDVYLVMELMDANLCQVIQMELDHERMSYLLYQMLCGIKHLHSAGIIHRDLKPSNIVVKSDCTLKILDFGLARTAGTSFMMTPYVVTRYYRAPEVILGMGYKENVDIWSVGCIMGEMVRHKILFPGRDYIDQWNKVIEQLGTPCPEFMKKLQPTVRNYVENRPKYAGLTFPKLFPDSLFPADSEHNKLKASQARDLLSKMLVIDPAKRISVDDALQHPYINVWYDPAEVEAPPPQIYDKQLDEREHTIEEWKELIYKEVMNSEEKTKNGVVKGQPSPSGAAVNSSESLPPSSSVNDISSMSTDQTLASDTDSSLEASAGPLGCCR

Sequence of EPHB1 (human) (P54762 whole entry, looked up): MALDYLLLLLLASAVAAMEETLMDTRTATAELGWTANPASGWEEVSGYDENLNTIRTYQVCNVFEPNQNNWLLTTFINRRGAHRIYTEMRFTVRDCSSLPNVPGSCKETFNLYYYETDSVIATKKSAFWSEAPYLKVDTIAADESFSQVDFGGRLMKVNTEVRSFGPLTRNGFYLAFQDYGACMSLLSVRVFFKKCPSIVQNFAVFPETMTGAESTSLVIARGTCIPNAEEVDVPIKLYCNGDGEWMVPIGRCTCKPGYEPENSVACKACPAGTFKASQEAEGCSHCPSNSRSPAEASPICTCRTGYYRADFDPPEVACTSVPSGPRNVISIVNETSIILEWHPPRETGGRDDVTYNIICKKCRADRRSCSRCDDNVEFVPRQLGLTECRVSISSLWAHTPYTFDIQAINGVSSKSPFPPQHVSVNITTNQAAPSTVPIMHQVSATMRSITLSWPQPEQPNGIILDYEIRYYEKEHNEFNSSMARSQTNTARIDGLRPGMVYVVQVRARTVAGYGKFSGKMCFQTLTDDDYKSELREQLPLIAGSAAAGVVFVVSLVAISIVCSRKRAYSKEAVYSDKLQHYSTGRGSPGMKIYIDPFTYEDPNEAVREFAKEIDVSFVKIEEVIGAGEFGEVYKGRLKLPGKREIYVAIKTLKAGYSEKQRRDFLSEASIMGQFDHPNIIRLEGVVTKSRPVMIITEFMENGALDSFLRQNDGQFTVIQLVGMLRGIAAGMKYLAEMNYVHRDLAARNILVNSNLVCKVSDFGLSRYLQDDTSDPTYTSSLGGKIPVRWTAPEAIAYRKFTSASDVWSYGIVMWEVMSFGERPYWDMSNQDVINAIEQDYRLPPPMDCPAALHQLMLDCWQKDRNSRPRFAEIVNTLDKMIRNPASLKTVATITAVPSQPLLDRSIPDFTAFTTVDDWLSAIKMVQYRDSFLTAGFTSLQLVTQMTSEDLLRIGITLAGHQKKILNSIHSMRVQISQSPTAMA
Sequence of DYRK2 (human) (Q92630 whole entry, looked up): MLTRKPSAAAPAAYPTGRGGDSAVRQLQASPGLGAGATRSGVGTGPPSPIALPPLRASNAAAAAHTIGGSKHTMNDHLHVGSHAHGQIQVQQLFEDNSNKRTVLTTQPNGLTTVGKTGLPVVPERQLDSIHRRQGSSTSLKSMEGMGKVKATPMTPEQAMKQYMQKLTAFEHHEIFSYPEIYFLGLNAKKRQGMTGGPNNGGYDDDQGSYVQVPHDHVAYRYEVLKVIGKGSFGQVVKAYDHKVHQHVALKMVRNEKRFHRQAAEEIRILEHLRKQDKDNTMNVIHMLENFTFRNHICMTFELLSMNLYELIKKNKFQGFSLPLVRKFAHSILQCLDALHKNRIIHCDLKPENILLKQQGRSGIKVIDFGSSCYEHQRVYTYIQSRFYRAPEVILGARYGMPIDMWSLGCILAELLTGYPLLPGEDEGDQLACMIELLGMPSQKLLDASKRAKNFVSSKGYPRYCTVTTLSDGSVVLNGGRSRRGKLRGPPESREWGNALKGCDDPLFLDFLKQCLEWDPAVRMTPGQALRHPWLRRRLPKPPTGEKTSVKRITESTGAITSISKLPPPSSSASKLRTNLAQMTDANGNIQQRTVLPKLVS
Sequence of RPS6KA2 KD1 (human) (Q15349 whole entry, looked up): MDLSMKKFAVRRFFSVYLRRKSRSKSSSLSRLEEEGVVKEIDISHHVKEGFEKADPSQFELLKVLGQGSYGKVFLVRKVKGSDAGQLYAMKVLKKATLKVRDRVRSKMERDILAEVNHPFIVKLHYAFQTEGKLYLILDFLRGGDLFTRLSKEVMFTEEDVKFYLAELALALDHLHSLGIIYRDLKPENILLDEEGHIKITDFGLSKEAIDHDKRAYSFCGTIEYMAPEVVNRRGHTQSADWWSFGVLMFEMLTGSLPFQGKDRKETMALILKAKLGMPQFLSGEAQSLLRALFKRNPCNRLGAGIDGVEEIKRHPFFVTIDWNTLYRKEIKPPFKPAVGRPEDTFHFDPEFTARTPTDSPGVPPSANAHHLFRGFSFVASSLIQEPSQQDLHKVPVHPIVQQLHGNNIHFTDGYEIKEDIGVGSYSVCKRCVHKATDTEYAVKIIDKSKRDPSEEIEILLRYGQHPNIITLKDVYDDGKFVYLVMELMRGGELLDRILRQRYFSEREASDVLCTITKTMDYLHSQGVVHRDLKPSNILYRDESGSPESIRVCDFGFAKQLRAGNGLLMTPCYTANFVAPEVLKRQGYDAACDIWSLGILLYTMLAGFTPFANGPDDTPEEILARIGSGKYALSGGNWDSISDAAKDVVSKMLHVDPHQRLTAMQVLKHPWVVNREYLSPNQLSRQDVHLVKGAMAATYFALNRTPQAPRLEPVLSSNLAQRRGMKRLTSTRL
Sequence of PAK4 (human) (O96013 whole entry, looked up): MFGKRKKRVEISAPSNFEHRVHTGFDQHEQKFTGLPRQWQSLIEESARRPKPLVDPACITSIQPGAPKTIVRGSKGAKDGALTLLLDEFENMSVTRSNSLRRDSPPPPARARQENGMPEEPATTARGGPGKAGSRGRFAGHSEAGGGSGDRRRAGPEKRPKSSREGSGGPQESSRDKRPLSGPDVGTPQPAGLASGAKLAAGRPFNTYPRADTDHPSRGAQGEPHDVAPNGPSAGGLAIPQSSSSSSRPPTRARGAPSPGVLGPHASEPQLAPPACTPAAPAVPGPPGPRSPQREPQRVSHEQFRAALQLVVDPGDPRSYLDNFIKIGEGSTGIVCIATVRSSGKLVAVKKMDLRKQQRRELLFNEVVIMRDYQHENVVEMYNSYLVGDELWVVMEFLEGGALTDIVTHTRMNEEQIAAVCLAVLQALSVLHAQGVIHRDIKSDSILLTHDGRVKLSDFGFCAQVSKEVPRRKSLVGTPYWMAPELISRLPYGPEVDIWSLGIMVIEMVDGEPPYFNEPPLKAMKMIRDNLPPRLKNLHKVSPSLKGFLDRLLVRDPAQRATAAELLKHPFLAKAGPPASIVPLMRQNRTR
Sequence of CSNK2A1 (human) (P68400 whole entry, looked up): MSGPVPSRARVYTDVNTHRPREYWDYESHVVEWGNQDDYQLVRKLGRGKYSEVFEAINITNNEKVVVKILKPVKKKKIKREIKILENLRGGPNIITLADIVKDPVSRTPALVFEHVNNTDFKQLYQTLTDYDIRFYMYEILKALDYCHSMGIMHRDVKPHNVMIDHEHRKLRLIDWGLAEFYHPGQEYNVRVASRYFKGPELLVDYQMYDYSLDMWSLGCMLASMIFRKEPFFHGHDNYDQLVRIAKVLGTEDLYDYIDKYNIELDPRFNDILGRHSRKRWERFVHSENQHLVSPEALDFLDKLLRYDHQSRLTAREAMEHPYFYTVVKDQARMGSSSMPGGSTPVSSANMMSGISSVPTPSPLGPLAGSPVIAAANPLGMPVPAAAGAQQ
Sequence of CASK (human) (O14936 whole entry, looked up): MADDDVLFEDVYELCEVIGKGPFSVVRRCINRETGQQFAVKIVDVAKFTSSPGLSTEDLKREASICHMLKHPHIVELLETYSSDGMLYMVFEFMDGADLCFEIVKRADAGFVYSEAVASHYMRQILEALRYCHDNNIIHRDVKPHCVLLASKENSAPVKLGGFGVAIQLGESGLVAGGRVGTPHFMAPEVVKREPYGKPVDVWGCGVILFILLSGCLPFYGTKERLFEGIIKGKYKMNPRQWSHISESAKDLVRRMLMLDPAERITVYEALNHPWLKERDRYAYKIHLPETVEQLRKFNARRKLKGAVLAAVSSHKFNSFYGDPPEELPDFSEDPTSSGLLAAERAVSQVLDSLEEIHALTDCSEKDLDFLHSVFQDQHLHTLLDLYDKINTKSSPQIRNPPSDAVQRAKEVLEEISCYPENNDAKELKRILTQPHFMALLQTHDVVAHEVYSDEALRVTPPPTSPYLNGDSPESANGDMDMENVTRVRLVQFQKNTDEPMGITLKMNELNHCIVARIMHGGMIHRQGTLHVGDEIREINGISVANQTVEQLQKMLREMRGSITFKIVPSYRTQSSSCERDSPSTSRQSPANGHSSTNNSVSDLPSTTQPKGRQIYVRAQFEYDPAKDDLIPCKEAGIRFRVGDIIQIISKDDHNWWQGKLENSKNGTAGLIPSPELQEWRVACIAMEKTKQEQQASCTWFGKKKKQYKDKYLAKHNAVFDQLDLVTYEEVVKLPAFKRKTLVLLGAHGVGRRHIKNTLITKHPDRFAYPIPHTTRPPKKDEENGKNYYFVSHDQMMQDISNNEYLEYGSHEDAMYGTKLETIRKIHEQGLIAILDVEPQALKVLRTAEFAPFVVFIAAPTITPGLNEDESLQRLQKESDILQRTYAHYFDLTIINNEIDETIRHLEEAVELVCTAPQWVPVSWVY
Sequence of CSNK1A1L (human) (Q8N752 whole entry, looked up): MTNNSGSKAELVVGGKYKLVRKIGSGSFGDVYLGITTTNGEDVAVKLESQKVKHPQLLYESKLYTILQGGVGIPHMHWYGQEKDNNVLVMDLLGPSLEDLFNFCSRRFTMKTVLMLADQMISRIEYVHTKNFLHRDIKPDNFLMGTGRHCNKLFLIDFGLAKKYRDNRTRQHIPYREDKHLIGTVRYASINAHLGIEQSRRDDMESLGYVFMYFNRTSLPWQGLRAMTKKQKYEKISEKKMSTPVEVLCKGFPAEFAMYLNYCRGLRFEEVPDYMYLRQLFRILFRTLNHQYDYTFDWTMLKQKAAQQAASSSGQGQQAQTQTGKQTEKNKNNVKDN

Cc1ccc(NC(=O)c2ccc(NC(=O)/C=C/CN(C)C)cc2)cc1Nc1nccc(-c2cccnc2)n1
kinase still bound, per cent of control (MAPK11 (human); compound 10.0 µM): 49% | kinase still bound, per cent of control (RPS6KA5 KD2 (human); compound 10.0 µM): 100% | kinase still bound, per cent of control (DYRK1A (human); compound 10.0 µM): 98% | kinase still bound, per cent of control (TSSK1B (human); compound 10.0 µM): 100% | kinase still bound, per cent of control (MAPK13 (human); compound 10.0 µM): 87% | kinase still bound, per cent of control (CDK4 CCND3 (human); compound 10.0 µM): 100% | kinase still bound, per cent of control (DMPK (human); compound 10.0 µM): 100% | kinase still bound, per cent of control (RPS6KA2 KD1 (human); compound 10.0 µM): 76% | kinase still bound, per cent of control (DYRK2 (human); compound 10.0 µM): 36% | kinase still bound, per cent of control (MARK3 (human); compound 10.0 µM): 100% | kinase still bound, per cent of control (STK36 (human); compound 10.0 µM): 100% | kinase still bound, per cent of control (CAMKK1 (human); compound 10.0 µM): 99% | kinase still bound, per cent of control (SIK1 (human); compound 10.0 µM): 100% | kinase still bound, per cent of control (EPHB6 (human); compound 10.0 µM): 26% | kinase still bound, per cent of control (LYN (human); compound 10.0 µM): 54% | kinase still bound, per cent of control (CDK9 (human); compound 10.0 µM): 100% | kinase still bound, per cent of control (CLK3 (human); compound 10.0 µM): 93% | kinase still bound, per cent of control (SNRK (human); compound 10.0 µM): 92% | kinase still bound, per cent of control (PIK3C2B (human); compound 10.0 µM): 93% | kinase still bound, per cent of control (CASK (human); compound 10.0 µM): 79% | kinase still bound, per cent of control (CSNK2A1 (human); compound 10.0 µM): 11% | kinase still bound, per cent of control (PRKACA (human); compound 10.0 µM): 100% | kinase still bound, per cent of control (NUAK1 (human); compound 10.0 µM): 100% | kinase still bound, per cent of control (ULK1 (human); compound 10.0 µM): 23% | kinase still bound, per cent of control (CaMK1 (human); compound 10.0 µM): 75% | kinase still bound, per cent of control (PRKG1 (human); compound 10.0 µM): 97% | kinase still bound, per cent of control (RPS6KA3 KD1 (human); compound 10.0 µM): 52% | kinase still bound, per cent of control (PAK4 (human); compound 10.0 µM): 84% | kinase still bound, per cent of control (EPHB1 (human); compound 10.0 µM): 100% | kinase still bound, per cent of control (PLK3 (human); compound 10.0 µM): 46% | kinase still bound, per cent of control (ALK (human); compound 10.0 µM): 100% | kinase still bound, per cent of control (STK24 (human); compound 10.0 µM): 86% | kinase still bound, per cent of control (CDK14 (human); compound 10.0 µM): 100% | kinase still bound, per cent of control (MAPK14 (human); compound 10.0 µM): 66% | kinase still bound, per cent of control (AKT1 (human); compound 10.0 µM): 100% | kinase still bound, per cent of control (CSNK1A1L (human); compound 10.0 µM): 100% | kinase still bound, per cent of control (NIM1 (human); compound 10.0 µM): 92% | kinase still bound, per cent of control ([1]; compound 10.0 µM): 100% | kinase still bound, per cent of control (MAP3K7 (human); compound 10.0 µM): 61% | kinase still bound, per cent of control (CHEK2 (human); compound 10.0 µM): 94% | Kd (MAPK10 (human)): 100 nM | kinase still bound, per cent of control (MAPK10 (human); compound 10.0 µM): 0.25%

CN(C)C/C=C/C(=O)Nc1cccc(C(=O)Nc2ccc(Nc3nccc(/C(C#N)=C4\Nc5ccccc5S4)n3)cc2)c1
kinase still bound, per cent of control (MAPK11 (human); compound 1.0 µM): 100% | kinase still bound, per cent of control (RPS6KA5 KD2 (human); compound 1.0 µM): 100% | kinase still bound, per cent of control (DYRK1A (human); compound 1.0 µM): 87% | kinase still bound, per cent of control (TSSK1B (human); compound 1.0 µM): 100% | kinase still bound, per cent of control (MAPK13 (human); compound 1.0 µM): 86% | kinase still bound, per cent of control (CDK4 CCND3 (human); compound 1.0 µM): 100% | kinase still bound, per cent of control (DMPK (human); compound 1.0 µM): 78% | kinase still bound, per cent of control (RPS6KA2 KD1 (human); compound 1.0 µM): 98% | kinase still bound, per cent of control (DYRK2 (human); compound 1.0 µM): 15% | kinase still bound, per cent of control (MARK3 (human); compound 1.0 µM): 100% | kinase still bound, per cent of control (STK36 (human); compound 1.0 µM): 95% | kinase still bound, per cent of control (CAMKK1 (human); compound 1.0 µM): 100% | kinase still bound, per cent of control (SIK1 (human); compound 1.0 µM): 100% | kinase still bound, per cent of control (EPHB6 (human); compound 1.0 µM): 49% | kinase still bound, per cent of control (LYN (human); compound 1.0 µM): 94% | kinase still bound, per cent of control (CDK9 (human); compound 1.0 µM): 100% | kinase still bound, per cent of control (CLK3 (human); compound 1.0 µM): 100% | kinase still bound, per cent of control (SNRK (human); compound 1.0 µM): 100% | kinase still bound, per cent of control (PIK3C2B (human); compound 1.0 µM): 96% | kinase still bound, per cent of control (CASK (human); compound 1.0 µM): 100% | kinase still bound, per cent of control (CSNK2A1 (human); compound 1.0 µM): 27% | kinase still bound, per cent of control (PRKACA (human); compound 1.0 µM): 88% | kinase still bound, per cent of control (NUAK1 (human); compound 1.0 µM): 100% | kinase still bound, per cent of control (ULK1 (human); compound 1.0 µM): 92% | kinase still bound, per cent of control (CaMK1 (human); compound 1.0 µM): 100% | kinase still bound, per cent of control (PRKG1 (human); compound 1.0 µM): 100% | kinase still bound, per cent of control (RPS6KA3 KD1 (human); compound 1.0 µM): 87% | kinase still bound, per cent of control (PAK4 (human); compound 1.0 µM): 100% | kinase still bound, per cent of control (EPHB1 (human); compound 1.0 µM): 100% | kinase still bound, per cent of control (PLK3 (human); compound 1.0 µM): 59% | kinase still bound, per cent of control (ALK (human); compound 1.0 µM): 100% | kinase still bound, per cent of control (STK24 (human); compound 1.0 µM): 100% | kinase still bound, per cent of control (CDK14 (human); compound 1.0 µM): 100% | kinase still bound, per cent of control (MAPK14 (human); compound 1.0 µM): 95% | kinase still bound, per cent of control (AKT1 (human); compound 1.0 µM): 6.6% | kinase still bound, per cent of control (CSNK1A1L (human); compound 1.0 µM): 100% | kinase still bound, per cent of control (NIM1 (human); compound 1.0 µM): 86% | kinase still bound, per cent of control ([1]; compound 1.0 µM): 100% | kinase still bound, per cent of control (MAP3K7 (human); compound 1.0 µM): 58% | kinase still bound, per cent of control (CHEK2 (human); compound 1.0 µM): 100% | kinase still bound, per cent of control (MAPK10 (human); compound 1.0 µM): 0.05%
